Laboratory results published in paper PMC3399945 (Journal of the American Chemical Society, 2012).
Square brackets hold non-standard residues; d marks the D form. Peptide text beside a SMILES is read from it. * marks the point of attachment. X1 = NC(=O)CC[C@@H]1NC(=O)CC/C=C/CN(CCC(=O)*)C(=O)[C@H](CCC(=O)O)NC1=O; β3hL = CC(C)C[C@H](N)CC(=O)O

Legend:
[1] = Amide hydrogen-deuterium exchange; format: physicochemical; conditions: for H/D rate constant: D2O/TFE-d3 80/20, 20 °C, NMR, in duplicate; for Stabilization, −ΔG (free energy of protection): from H/D exchange, 20 °C
[2] = Thermal denaturation monitored by CD / Zimm–Bragg model; format: physicochemical; conditions: from broad thermal transition, CD in 10% TFE/PBS, Zimm–Bragg simulation
[3] = target: N-terminal His6-tagged MDM2 (25–117) (Homo sapiens, UniProt Q00987); test: Fluorescence polarization-based competition binding assay with Flu-p53; conditions: comparison with previously reported affinity of 1 (ref 38)
[4] = format: physicochemical; conditions: 10% TFE in PBS, 25 °C, 100 μM peptide, pH 7.4

Compound | H/D rate constant ([1]; residue 4 (F^4)) [h⁻¹] | H/D rate constant ([1]; residue 5 (S^5)) [h⁻¹] | H/D rate constant ([1]; residue 8 (W^8)) [h⁻¹] | H/D rate constant ([1]; residue 9 (K^9)) [h⁻¹] | H/D rate constant ([1]; residue 12 (S^12)) [h⁻¹] | nucleation constant σ [2] | affinity for MDM2 compared with HBS α-helix 1 (in words) [3] | Stabilization, −ΔG (free energy of protection) ([1]; residue 6 (D^6 in 1 and 2, Dβ^6 in 3)) [kcal/mol] | Stabilization, −ΔG (free energy of protection) ([1]; residue 7 (L^7 in 1 and 3, Lβ^7 in 2)) [kcal/mol] | Stabilization, −ΔG (free energy of protection) ([1]; residue 8 (W^8)) [kcal/mol] | Stabilization, −ΔG (free energy of protection) ([1]; residue 9 (K^9)) [kcal/mol] | Stabilization, −ΔG (free energy of protection) ([1]; residue 10 (L^10 in 1 and 2, Lβ^10 in 3)) [kcal/mol] | Stabilization, −ΔG (free energy of protection) ([1]; residue 11 (L^11 in 1 and 3, Lβ^11 in 2)) [kcal/mol] | Stabilization, −ΔG (free energy of protection) ([1]; residue 12 (S^12)) [kcal/mol] | CD signature (in words) [4]
CC(C)C[C@@H](CC(=O)N[C@@H](Cc1c[nH]c2ccccc12)C(=O)N[C@@H](CCCCN)C(=O)N[C@@H](CC(C)C)C(=O)N[C@H](CC(=O)N[C@@H](CO)C(N)=O)CC(C)C)NC(=O)[C@H](CC(=O)O)NC(=O)[C@H](CO)NC(=O)[C@H](Cc1ccccc1)NC(=O)CCN1C/C=C/CCC(=O)N[C@@H](CCC(N)=O)C(=O)N[C@@H](CCC(=O)O)C1=O [Peptide 2] (X1-FSD[β3hL]WKL[β3hL]S-NH2) | 0.0003809 | 0.0003809 | 6.9e-06 | 2.8e-06 | 5.85e-05 | ≥ 1 |  |  |  |  |  |  |  |  | 
CC(C)C[C@@H](CC(=O)N[C@@H](CC(C)C)C(=O)N[C@@H](CO)C(N)=O)NC(=O)[C@H](CCCCN)NC(=O)[C@H](Cc1c[nH]c2ccccc12)NC(=O)[C@H](CC(C)C)NC(=O)C[C@H](CC(=O)O)NC(=O)[C@H](CO)NC(=O)[C@H](Cc1ccccc1)NC(=O)CN1C/C=C/CCC(=O)N[C@@H](CCC(N)=O)C(=O)N[C@@H](CCC(=O)O)CC1=O [Peptide 3] | 1.33e-05 | 1.07e-05 | 1.4e-06 | 8e-07 | 2.6e-06 | ≥ 1 | comparable to that previously reported for the optimized HBS p53 α-helix analog 1 |  |  |  |  |  |  |  | 
XQEG*FSDLWKLLS-NH2 (sidechain bridge or staple) [Peptide 1] | 0.0003808 | 0.0003808 | 1.8e-06 | 5.1e-06 | 7.8e-06 |  |  | -0.58 | 0.52 | 1.22 | 1.23 | 1.40 | 1.04 | 1.42 | CD signature typical of a canonical α-helix, with double minima near 206 and 222 nm and a maximum at 190 nm
